We go through two molecules from patent US10538561B2, “Peptide for treating inflammatory diseases” (priority 2015, dated 2020).

Molecules are shown by their SMILES. Where two headings read alike, the source gives them in different places. A value given as a limit tells only on which side of the number the result lay.

Data set [1] relates to VEGF. Description: VEGF inhibition in keratinocytes (ELISA). Conditions: HaCaT. It counts as cell-based, Human. The protocol: Cell lines: Human Keratinocytes (HaCaT); test item: IS181; treatment regimen: single addition—24 hours; concentration range: 0.1 μg/ml-100 μg/ml. […] Cells were serum-starved for another 24 hours (0% FBS). Cells were treated with IS181 for 24 hours. Supernatants were collected and stored at −20° C. till analysed. Levels of VEGF were analysed in supernatants by ELISA. Percent inhibition of VEGF secretion was calculated with reference to untreated levels. Positive control: curcumin; retinoic acid (at non-cytotoxic concentrations).
On the technique in general: In an ELISA, binding on a coated surface is turned into a signal by an enzyme label.

Data set [2] concerns IL-17. As to the kind of experiment: IL-17 secretion in ConA stimulated splenocytes. The format is cell-based, mouse. To be noted: splenocytes + ConA, 24 h. The protocol: (§1) Cell lines: mouse splenocytes; test item: IS181; treatment regimen: single addition—24 hours; concentration range: 10 μg/ml-5000 μg/ml.A) Identification of non-cytotoxic concentrations: splenocytes were treated with IS181 for 24 hours. Effect on cell viability was assessed by MTT assay. Concentrations leading to >75% cell viability were selected for IL-17 assay. B) IL-17 assay: splenocytes were treated with IS181 in presence of ConA stimulation for 24 hours. Supernatants were collected and stored at −20° C. till analysed. Levels of IL-17 were analysed in supernatants by ELISA. Percent inhibition of IL-17 secretion was calculated with reference to ConA treated levels. Positive control: curcumin.

The test system of data set [3] is Human Keratinocytes (HaCaT). Description: Annexin-V assay. To be noted: 10 μM-50 μM. The format is cell-based. The protocol:
Cell lines: Human Keratinocytes (HaCaT); test Item (TI): IS181; Treatment regimen: treated twice (once after 24 hours)-48 hours; concentration range: 100 6 g/ml-5000 6 g/ml. […] (c) cells were treated with IS181 for 24 hours; (d) after 24 hours, cells were again treated with IS181 for 24 hours; (e) after 48 hours of first treatment, cells were stained with Annexin-V reagent and acquired on flow cytometer; (f) fold increase in apoptotic cells (early and late apoptotic) and necrotic cells was calculated with respect to untreated control cells. Positive control: Curcumin. […] (FIG. 4)

Data set [4] has as its system IL-23. Description: IL-23 secretion in LPS+IFN-γ stimulated THP-1. It counts as cell-based, Human. To be noted: THP-1 + LPS + IFN-γ, 24 h. The protocol: (§2) Cell lines: Human monocytic cell line (THP-1); test item: IS181: treatment regimen; single addition—24 hours; concentration range: 10 μg/ml-5000 μg/ml. A) Identification of non-cytotoxic concentrations: THP-1 cells were treated with IS181 for 24 hours; effect on cell viability was assessed by MTT assay; concentrations leading to >75% cell viability were selected for IL-23 assay. […] Positive control: curcumin. […] Since supernatants corresponding to 5 concentrations were to be tested for […], we also tested 1 mg/ml.

A short description of data set [5]: Cell viability of THP-1 (MTT). It counts as cell-based, Human. To be noted: human. The protocol: as §2
The nature of data set [6]: Cell viability of splenocytes (MTT). It counts as cell-based, mouse. Conditions: mouse. The protocol: as §1
In data set [7] the test system is Caspase-3 enzyme. Description: Caspase-3 assay. The format is cell-based, Human. To be noted: HaCaT, 0.1 μM. The method, then: Cell lines: Human Keratinocytes (HaCaT); Test Item (TI): IS 181; Treatment regimen: Multiple additions (2)—48 hours; Concentration range: 100 μg/ml to 5000 μg/ml (Duplicate wells); Sera Condition: Medium containing 1% FBS. […] Cells were lysed and protein was estimated. The above lysates were processed further for Caspase-3 enzyme activity assay using colorimetric based method. Percentage induction of Caspase-3 enzyme activation with respect to untreated; Positive control: Anthralin. IS 181 led to induction of Caspase-3 enzyme activation in HaCaT cells at all the concentrations tested except at 100 μg/ml. […] (FIGS. 7A-7B)

Data set [8] relates to Human endothelial cells (EA.hy 926). As to the kind of experiment: Inhibition of FBS stimulated endothelial cell proliferation (MTT). It counts as cell-based. The method, then:
Cell line: Human endothelial cells (EA.hy 926); test item: IS 181: treatment regimen: multiple additions (3)-72 hours; concentration range: 1 6 g/ml to 5000 6 g/ml (triplicate wells); sera condition: medium containing 10% FBS. […] The cells were then subjected to complete serum starvation. The cells were retreated with 10% FBS to stimulate cellular proliferation. […] Inhibition of FBS stimulated cell proliferation was measured using MTT assay. End point: percentage inhibition of FBS stimulated cell proliferation. Positive controls: anthralin; paclitaxel.

For data set [9] the test system is unchanged. As to the kind of experiment: DNA fragmentation in endothelial cells. The format is cell-based. The method, then:
Cell lines: Human endothelial cells (EA.Hy 926); test item: IS 181; treatment regimen: multiple additions (2)—48 hours; concentration range: 100 μg/ml to 5000 μg/ml (Duplicate wells); sera condition: medium containing 1% FBS. […] Cells were lysed and fragmented DNA was precipitated using PEG/NaCl solution. The fragmented DNA was incubated with 0.2 μg/ml of Hoechst 33258 dye and fluorescence was read at 360 ex/460 em. End point: Percentage induction of DNA fragmentation with respect to untreated. Positive control: anthralin. IS 181 led to induction of DNA fragmentation in Ea.hy.926 cells at all the concentrations tested. […] The overall effect of IS 181 on induction of DNA fragmentation with respect to untreated in Ea.hy.926 cells ranged from 15.09% to 64.15% (FIGS. 10A-10B and Table-10).

Data set [10] relates to Human Keratinocytes (HaCaT). As to the kind of experiment: DNA fragmentation assay in HaCaT. It counts as cell-based. The protocol: Cells were lysed and fragmented DNA was precipitated using PEG/NaCl solution. The fragmented DNA was incubated with 0.2 μg/ml of Hoechst 33258 dye and fluorescence was read at 360 ex/460 em. End point: Percentage induction of DNA fragmentation with respect to untreated Positive control. Anthralin. IS 181 led to induction of DNA fragmentation in HaCaT cells at all the concentrations tested except at 100 μg/ml. […] The overall effect of IS 181 on induction of DNA fragmentation with respect to untreated in HaCaT cells ranged from −18.8% to 83.3%. (FIG. 8 and Table-6).

Data set [11] can be described thus: In vitro combination Anthralin and IS 181 (MTT). It counts as cell-based, Human. To be noted: human, HaCaT keratinocytes, read-out: percent inhibition of cell viability/cytotoxicity. The protocol:
(§3) Percentage cytotoxicity was determined using MTT assay.

Data set [12] concerns Human Keratinocytes (HaCaT). As to the kind of experiment: In vitro combination Anthralin and IS 181 (MTT). It counts as cell-based. To be noted: Homo sapiens, 72 h, read-out: IC 50 value of Anthralin. The protocol: as §3

As usually defined, the inhibition is the drop in the measured response relative to a control, in per cent. In general, viability refers to a read-out of living cells in per cent, often relative to untreated cells.

Regarding `COc1cc(/C=C/C(=O)CC(=O)/C=C/c2ccc(O)c(OC)c2)ccc1O` [Curcumin, reference compound], the VEGF inhibition result in [1] (20 uM) is reported as “did not result in any VEGF inhibition”. Further, in data set [1] (24 h, 1 μM), the “Conc. of VEGF” value was 3059.1 pg/mL. Further, the inhibition at 1 µM came to 14.9% in data set [1] (Homo sapiens, 24 h, 1 μM, read-out: % Inhibition of VEGF wrt untreated (basal) levels); 40.5% in [2] (Mus musculus, Splenocyte, 1 μM, read-out: % Inhibition of IL-17 wrt Control (ConA)); 91.6% in [4] (Homo sapiens, 1 μM, read-out: % Inhibition of IL-23 wrt Control (LPS + IFN-γ)). For the same molecule, the inhibition at 10 µM was found to be 42.5% in [2] (Mus musculus, Splenocyte, 10 μM, read-out: % Inhibition of IL-17 wrt Control (ConA)) and 90.6% in data set [4] (Homo sapiens, 10 μM, read-out: % Inhibition of IL-23 wrt Control (LPS + IFN-γ)). Besides, the “Conc. of IL-17” value in data set [2] (1 μM) worked out at 27.7 pg/mL; in [2] (10 μM), 26.7 pg/mL. Also, the “increase in early apoptotic cells” value in data set [3] is listed as 12.8-152.5 fold. Besides, the “increase in late apoptotic cells” value in data set [3] is 2.4-138.4 fold. In addition, the “Conc. of IL-23” value was found to be 7.1 pg/mL in data set [4] (1 μM) and 7.9 pg/mL in data set [4] (10 μM). Besides, the results for the viability at 24 h, 1 µM in data set [5] and in data set [6] were 94.7% and 97.5%, respectively. Further, the viability at 24 h, 10 µM stood at 103% in data set [5] and 82% in data set [6]. In addition, the viability at 24 h, 20 µM in data set [5] was found to be 107%; in data set [6] it was 40.4%. Further, the viability at 24 h in data set [6] was greater than 75%.

As for `O=C1c2c(O)cccc2Cc2cccc(O)c21` [Anthralin, reference compound], in data set [7], the “Percentage induction of caspase-3 enzyme activation with respect to untreated” value was determined as 101.85. Further, the “Absorbance (Mean ± SD) at 540 nm” value in [8] (EA.hy926, 0.01 μM) amounted to 0.46 ± 0.025; in data set [8] (EA.hy926, 0.1 μM), 0.45 ± 0.018; in data set [8] (EA.hy926, 0.5 μM), 0.42 ± 0.013. Moreover, the inhibition at 0.01 µM in data set [8] (Homo sapiens, EA.hy 926, EA.hy926, 0.01 μM, read-out: ¾ Inhibition of FBS stimulated cell growth) is 7.21%. In addition, the inhibition at 0.1 µM in data set [8] (Homo sapiens, EA.hy 926, EA.hy926, 0.1 μM, read-out: ¾ Inhibition of FBS stimulated cell growth) stood at 14.6%. The inhibition at 0.5 µM in data set [8] (Homo sapiens, EA.hy 926, EA.hy926, 0.5 μM, read-out: ¾ Inhibition of FBS stimulated cell growth) was found to be 20.4%. For the same molecule, the “% induction of DNA fragmentation” value in data set [9] (EA.hy926, 0.1 μM) was found to be 3.77%; in [9] (EA.hy926, 0.5 μM), 13.21%; in [10] (0.1 μM), 60.42%; in data set [10] (0.5 μM), 168.75%. Besides, the cytotoxicity at 72 h, 0.01 µM in [11] (Anthralin 0.01 μM alone) came to 0.75%. The cytotoxicity at 72 h, 0.05 µM in data set [11] (Anthralin 0.05 μM alone) was -2.45%. The cytotoxicity at 72 h, 0.1 µM in data set [11] (Anthralin 0.1 μM alone) amounted to 9.41%. Besides, the cytotoxicity at 72 h, 0.5 µM in [11] (Anthralin 0.5 μM alone) worked out at 41.3%. Besides, in [11] (Anthralin 1 μM alone), the cytotoxicity at 72 h, 1 µM was 78.9%. Also, the cytotoxicity at 72 h, 5 µM in [11] (Anthralin 5 μM alone) stood at 87.9%. Besides, the IC50 amounted to 558 nM in data set [12] (IS 181 0 μg/ml); 628 nM in data set [12] (with IS 181 10 μg/ml); 584 nM in [12] (with IS 181 50 μg/ml); 522 nM in data set [12] (with IS 181 100 μg/ml); 97.3 nM in data set [12] (with IS 181 500 μg/ml); 27.1 nM in [12] (with IS 181 1000 μg/ml). Moreover, the IC50 in [12] (with IS 181 2000 μg/ml) was 0.1 nM.
